Results reported in PubChem BioAssay (NCI).
Where “and” joins values, the source holds several entries; their conditions need not be identical. Equal values may be shown once.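 Dose response: 5 concentrations. Exposure: 48 h. Format: 96-well plates. Endpoint: linear interpolation; highest concentration if not reached. GI50 marks 50% less growth. TGI marks complete inhibition of growth.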

What was measured:
Assay in all cases: NCI-60 cell line screen, 48 h
[1] = system: MDA-N
[2] = system: MCF7 breast
[3] = system: HOP-92 NSCLC
[4] = system: A498 renal
[5] = system: PC-3 prostate
[6] = system: NCI-H226 lung
[7] = system: NCI/ADR-RES ovarian
[8] = system: HCC-2998 colon
[9] = system: U251 CNS
[10] = system: MALME-3M melanoma
[11] = system: NCI-H23 lung
[12] = system: HCT-15 colon
[13] = system: HS 578T breast
[14] = system: TK-10 renal
[15] = system: SF-268 CNS
[16] = system: MDA-MB-435
[17] = system: IGROV1 ovarian
[18] = system: SF-539 CNS
[19] = system: SK-MEL-28 melanoma
[20] = system: HL-60(TB) leukemia
[21] = system: EKVX NSCLC
[22] = system: LOX IMVI melanoma
[23] = system: UACC-257 melanoma
[24] = system: HCT-116 colon
[25] = system: HT29 colon
[26] = system: UO-31 renal
[27] = system: SK-MEL-5 melanoma
[28] = system: 786-0 renal
[29] = system: K-562 leukemia
[30] = system: KM12 colon
[31] = system: M14 melanoma
[32] = system: COLO 205 colon
[33] = system: NCI-H460 lung
[34] = system: SF-295 CNS
[35] = system: ACHN renal
[36] = system: MDA-MB-231 breast
[37] = system: MOLT-4 leukemia
[38] = system: CCRF-CEM leukemia
[39] = system: SNB-75 CNS
[40] = system: OVCAR-5 ovarian
[41] = system: A549 NSCLC
[42] = system: SR leukemia
[43] = system: DU-145 prostate
[44] = system: BT-549 breast
[45] = system: T-47D breast
[46] = system: SN12C renal
[47] = system: RXF 393 renal
[48] = system: RPMI-8226 leukemia
[49] = system: OVCAR-8 ovarian
[50] = system: OVCAR-4 ovarian
[51] = system: SW-620 colon
[52] = system: SNB-19 CNS
[53] = system: NCI-H522 lung
[54] = system: OVCAR-3 ovarian
[55] = system: HOP-62 NSCLC
[56] = system: SK-MEL-2 melanoma
[57] = system: UACC-62 melanoma
[58] = system: CAKI-1 renal
[59] = system: SK-OV-3 ovarian

## CC(C)(C)OC(=O)C1C(=O)NC(=O)CC1C(OCc1ccccc1)C(OCc1ccccc1)C(COCc1ccccc1)OCc1ccccc1 (centres undefined)
[1]
  TGI: > 100 µM
[2]
  GI50: 50 µM and 15.3 µM
  TGI: > 100 µM
[3]
  GI50: > 100 µM and 13.3 µM
  TGI: > 100 µM
[4]
  TGI: > 100 µM
[5]
  TGI: > 100 µM
[6]
  TGI: > 100 µM
[7]
  TGI: > 100 µM
[8]
  TGI: > 100 µM
[9]
  GI50: 68 µM and 14.4 µM
  TGI: > 100 µM
[10]
  GI50: > 100 µM and 15.7 µM
  TGI: > 100 µM and 73 µM
[11]
  TGI: > 100 µM
[12]
  TGI: > 100 µM
[13]
  GI50: > 100 µM and 16.2 µM
  TGI: > 100 µM
[14]
  TGI: > 100 µM
[15]
  TGI: > 100 µM
[16]
  GI50: > 100 µM and 28.9 µM
  TGI: > 100 µM
[17]
  TGI: > 100 µM
[18]
  TGI: > 100 µM
[19]
  TGI: > 100 µM
[20]
  GI50: 61.7 µM and 12.8 µM
  TGI: > 100 µM and 49.5 µM
[21]
  TGI: > 100 µM
[22]
  GI50: > 100 µM and 41.8 µM
  TGI: > 100 µM
[23]
  TGI: > 100 µM
[24]
  GI50: > 100 µM and 48.1 µM
  TGI: > 100 µM
[25]
  TGI: > 75 µM
[26]
  GI50: 42.6 µM and 10.5 µM
  TGI: > 100 µM and 30.3 µM
[27]
  GI50: > 100 µM and 28.4 µM
  TGI: > 100 µM
[28]
  TGI: > 100 µM
[29]
  TGI: > 100 µM
[30]
  GI50: > 100 µM and 24.5 µM
  TGI: > 100 µM
[31]
  TGI: > 100 µM
[32]
  TGI: > 100 µM
[33]
  GI50: > 100 µM and 37.3 µM
  TGI: > 100 µM
[34]
  TGI: > 100 µM
[35]
  TGI: > 100 µM
[36]
  GI50: > 100 µM and 40.5 µM
  TGI: > 100 µM
[37]
  GI50: 66 µM and 9.83 µM
  TGI: > 100 µM
[38]
  GI50: > 100 µM and 49.1 µM
  TGI: > 100 µM
[39]
  GI50: 26 µM and > 7.5 µM
  TGI: > 100 µM
[40]
  TGI: > 100 µM
[41]
  GI50: > 100 µM and 26.9 µM
  TGI: > 100 µM
[42]
  GI50: > 100 µM and 35.1 µM
  TGI: > 100 µM
[43]
  TGI: > 100 µM
[44]
  GI50: > 100 µM and 31.7 µM
  TGI: > 100 µM
[45]
  TGI: 14.6 µM
[46]
  TGI: > 100 µM
[47]
  GI50: 33.2 µM and 14.4 µM
  TGI: > 100 µM
[48]
  GI50: 78.7 µM and 23 µM
  TGI: > 100 µM
[49]
  TGI: > 100 µM
[50]
  TGI: > 100 µM
[51]
  TGI: > 100 µM
[52]
  TGI: > 100 µM

## O=C(CSc1nc2ccccc2c(=O)n1-c1ccccc1)N=Nc1c(O)[nH]c2ccc(Br)cc12
[1]
  TGI: 16.9 µM
[2]
  TGI: > 27.9 µM
[53]
  TGI: 9.69 µM
[3]
  TGI: 7.76 µM
[4]
  TGI: 40.8 µM
[5]
  TGI: 4.03 µM
[7]
  TGI: 22.9 µM
[8]
  TGI: > 100 µM
[9]
  TGI: 4.26 µM
[10]
  TGI: 5.74 µM
[11]
  TGI: 10.8 µM
[12]
  TGI: 30.2 µM
[13]
  TGI: > 100 µM
[14]
  TGI: 12.4 µM
[15]
  TGI: > 38.3 µM
[16]
  TGI: 34 µM
[17]
  TGI: 5.03 µM
[18]
  TGI: 6.13 µM
[19]
  TGI: 13.8 µM
[20]
  TGI: 12.8 µM
[54]
  TGI: 20 µM
[21]
  TGI: 9.83 µM
[22]
  TGI: > 31.5 µM
[23]
  TGI: 52 µM
[55]
  TGI: 7.07 µM
[25]
  TGI: 3.7 µM
[26]
  TGI: 6.64 µM
[27]
  TGI: > 20.6 µM
[28]
  TGI: 4.33 µM
[29]
  TGI: 10.3 µM
[30]
  TGI: 14 µM
[56]
  TGI: 47.1 µM
[31]
  TGI: 6.87 µM
[57]
  TGI: 25.9 µM
[32]
  TGI: > 35.6 µM
[33]
  TGI: 41.8 µM
[34]
  TGI: 8.93 µM
[35]
  TGI: > 94.5 µM
[36]
  TGI: 3.58 µM
[37]
  TGI: > 29.4 µM
[38]
  TGI: > 100 µM
[39]
  TGI: 11.5 µM
[40]
  TGI: 8.53 µM
[41]
  TGI: 10.9 µM
[42]
  TGI: > 26.6 µM
[43]
  TGI: 3.39 µM
[44]
  TGI: > 59.6 µM
[45]
  TGI: 28.6 µM
[46]
  TGI: 4.22 µM
[47]
  TGI: 7.68 µM
[48]
  TGI: > 38 µM
[49]
  TGI: 3.99 µM
[58]
  TGI: 3.69 µM
[51]
  TGI: > 51.2 µM
[59]
  TGI: 13.1 µM
[52]
  TGI: 27.2 µM

## COc1cc(OC)c(-n2[nH]c(=O)n(C)c2=O)c(OC)c1
[1]
  TGI: > 100 µM
[2]
  TGI: > 100 µM
[53]
  TGI: > 100 µM
[4]
  TGI: > 100 µM
[5]
  TGI: > 100 µM
[6]
  TGI: > 100 µM
[7]
  TGI: > 100 µM
[8]
  TGI: > 100 µM
[9]
  TGI: > 100 µM
[10]
  TGI: > 100 µM
[11]
  TGI: > 100 µM
[12]
  TGI: > 100 µM
[13]
  TGI: > 100 µM
[14]
  TGI: > 100 µM
[15]
  TGI: > 100 µM
[16]
  TGI: > 100 µM
[17]
  TGI: > 100 µM
[18]
  TGI: > 100 µM
[19]
  TGI: > 100 µM
[20]
  TGI: > 100 µM
[54]
  TGI: > 100 µM
[21]
  TGI: > 100 µM
[22]
  TGI: > 100 µM
[23]
  TGI: > 100 µM
[24]
  TGI: > 100 µM
[25]
  TGI: > 100 µM
[26]
  TGI: > 100 µM
[28]
  TGI: > 100 µM
[29]
  TGI: > 100 µM
[30]
  TGI: > 100 µM
[56]
  TGI: > 100 µM
[31]
  TGI: > 100 µM
[57]
  TGI: > 100 µM
[32]
  TGI: > 100 µM
[33]
  TGI: > 100 µM
[36]
  TGI: > 100 µM
[37]
  TGI: > 100 µM
[38]
  TGI: > 100 µM
[39]
  TGI: > 100 µM
[40]
  TGI: > 100 µM
[41]
  TGI: > 100 µM
[42]
  TGI: > 100 µM
[43]
  TGI: > 100 µM
[44]
  TGI: > 100 µM
[45]
  TGI: > 100 µM
[46]
  TGI: > 100 µM
[47]
  TGI: > 100 µM
[48]
  TGI: > 100 µM
[49]
  TGI: > 100 µM
[50]
  TGI: > 100 µM
[58]
  TGI: > 100 µM
[51]
  TGI: > 100 µM
[59]
  TGI: > 100 µM
[52]
  TGI: > 100 µM
